Earlier results, collected in US20250312270A1, “READY-TO-INFUSE PHENYLEPHRINE COMPOSITIONS” (AMNEAL EU, LIMITED, priority 2023, published 2025).

Test system: blood pressure
Conditions: doses above 6 mcg/kg/min, intravenous continuous infusion, adult patients with septic or other vasodilatory shock

## CNC[C@H](O)c1cccc(O)c1 [phenylephrine, (R)-3-Hydroxy-α-(methylaminomethyl)benzyl alcohol]
  incremental increase in blood pressure: do not show significant incremental increase in blood pressure
